Assay results taken from ChEMBL document CHEMBL4400559, “Exploiting the furo[2,3-b]pyridine core against multidrug-resistant Mycobacterium tuberculosis” (Bioorg Med Chem Lett, 2019).
Values after ≈ are worked out from the molar mass of the structure shown.

Experiments:
Type in all cases: functional
[1] = test system: Mycobacterium tuberculosis; assay: Antibacterial activity against drug-resistant Mycobacterium tuberculosis isolate 2 after 7 days by resazurin microtiter assay; conditions: isolate 2, 168 h
[2] = test system: Mycobacterium tuberculosis; assay: Antibacterial activity against drug-resistant Mycobacterium tuberculosis isolate 1 after 7 days by resazurin microtiter assay; conditions: isolate 1, 168 h
[3] = test system: Mycobacterium tuberculosis; assay: Antibacterial activity against drug-resistant Mycobacterium tuberculosis isolate 3 after 7 days by resazurin microtiter assay; conditions: isolate 3, 168 h
[4] = test system: Mycobacterium tuberculosis; assay: Antibacterial activity against drug-resistant Mycobacterium tuberculosis isolate 5 after 7 days by resazurin microtiter assay; conditions: isolate 5, 168 h
[5] = test system: Mycobacterium tuberculosis; assay: Antibacterial activity against drug-resistant Mycobacterium tuberculosis isolate 4 after 7 days by resazurin microtiter assay; conditions: isolate 4, 168 h

SMILES	MIC [1] [µM]	MIC [2] [µM]	MIC [3] [µM]	MIC [4] [µM]	MIC [5] [µM]
CCOC(=O)c1c(C)oc2nc(N3CCCC3)ccc12	20.2 (≈ 5.54 µg/mL)	18.1 (≈ 4.97 µg/mL)	9.3 (≈ 2.55 µg/mL)	16.6 (≈ 4.55 µg/mL)	15.8 (≈ 4.33 µg/mL)
CCCCNc1ccc2c(C(=O)OCC)c(C(C)C)oc2n1	> 82.2	> 82.2	> 82.2	> 82.2	> 82.2
NCC[C@H](O)C(=O)N[C@@H]1C[C@H](N)[C@@H](O[C@H]2O[C@H](CN)[C@@H](O)[C@H](O)[C@H]2O)[C@H](O)[C@H]1O[C@H]1O[C@H](CO)[C@@H](O)[C@H](N)[C@H]1O [AMIKACIN]	1.6 (≈ 0.937 µg/mL)	0.4 (≈ 0.234 µg/mL)	0.4 (≈ 0.234 µg/mL)	1.7 (≈ 0.996 µg/mL)	0.7 (≈ 0.41 µg/mL)
N[C@@H]1CONC1=O [CYCLOSERINE]	121 (≈ 12.3 µg/mL)	242 (≈ 24.7 µg/mL)	> 245	196 (≈ 20.1 µg/mL)	167 (≈ 17 µg/mL)
CC[C@@H](CO)NCCN[C@@H](CC)CO [ETHAMBUTOL]	> 122	> 122	> 122	> 122	> 122
NNC(=O)c1ccncc1 [ISONIAZID]	> 182	> 182	> 182	> 182	> 182
COc1c(N2C[C@@H]3CCCN[C@@H]3C2)c(F)cc2c(=O)c(C(=O)O)cn(C3CC3)c12 [MOXIFLOXACIN]	0.7 (≈ 0.281 µg/mL)	0.3 (≈ 0.12 µg/mL)	0.5 (≈ 0.201 µg/mL)	0.4 (≈ 0.161 µg/mL)	1.4 (≈ 0.562 µg/mL)
CO[C@H]1/C=C/O[C@@]2(C)Oc3c(C)c(O)c4c(O)c(c(/C=N/N5CCN(C)CC5)c(O)c4c3C2=O)NC(=O)/C(C)=C\C=C\[C@H](C)[C@H](O)[C@@H](C)[C@@H](O)[C@@H](C)[C@H](OC(C)=O)[C@@H]1C [RIFAMPIN]	> 30.4		> 30.4	> 30.4	> 30.4
